# Laboratory results from article PMC10454678, “Synthesis of hydroxy benzoin/benzil analogs and investigation of their antioxidant, antimicrobial, enzyme inhibition, and cytotoxic activities” (Turkish Journal of Chemistry, 2021).
# Where two headings read alike, the source gives them in different places.
# Tests used:
# [1] = test system: Mycobacterium smegmatis ATCC607; test: MIC, microdilution, M. smegmatis; type: cell-based; details: Tub., BHI broth, 36 °C; for MIC Ms: 72 h; for MIC: Mycolicibacterium smegmatis, ATCC607, 72 h, read-out: MIC Ms
# [2] = test system: Candida albicans ATCC60193; test: MIC, microdilution, C. albicans; type: cell-based; details: fungus, YEPD broth, 48 h, 36 °C; for MIC: Candida albicans, ATCC60193, read-out: MIC Ca
# [3] = target: α-glucosidase; test: α-Glucosidase inhibition; type: biochemical; details: PNPG, pH 6.8, 37 °C, 400 nm
# Method: It was incubated at 37 °C for 15 min. Similarly, an enzyme-free blank was prepared. The reaction was stopped when sodium carbonate (50 μL, 0.2 M) was added.
# [4] = test system: Pseudomonas aeruginosa ATCC27853; test: MIC, microdilution, P. aeruginosa; type: cell-based; details: Gram (-), Mueller-Hinton broth, 18-24 h, 36 °C; for MIC: Pseudomonas aeruginosa, ATCC27853, read-out: MIC Pa
# [5] = test system: Staphylococcus aureus ATCC25923; test: MIC, microdilution, S. aureus; type: cell-based; details: for MIC: Staphylococcus aureus
# [6] = test system: Bacillus cereus Roma709; test: MIC, microdilution, B. cereus; type: cell-based; details: for MIC: Bacillus cereus
# [7] = target: α-amylase (Sus scrofa, UniProt P00690); test: α-Amylase inhibition (Caraway-Somogyi I2/KI method); type: biochemical; details: starch, pH 6.9, 37 °C, 630 nm
# Sequence of α-amylase (P00690 16-511): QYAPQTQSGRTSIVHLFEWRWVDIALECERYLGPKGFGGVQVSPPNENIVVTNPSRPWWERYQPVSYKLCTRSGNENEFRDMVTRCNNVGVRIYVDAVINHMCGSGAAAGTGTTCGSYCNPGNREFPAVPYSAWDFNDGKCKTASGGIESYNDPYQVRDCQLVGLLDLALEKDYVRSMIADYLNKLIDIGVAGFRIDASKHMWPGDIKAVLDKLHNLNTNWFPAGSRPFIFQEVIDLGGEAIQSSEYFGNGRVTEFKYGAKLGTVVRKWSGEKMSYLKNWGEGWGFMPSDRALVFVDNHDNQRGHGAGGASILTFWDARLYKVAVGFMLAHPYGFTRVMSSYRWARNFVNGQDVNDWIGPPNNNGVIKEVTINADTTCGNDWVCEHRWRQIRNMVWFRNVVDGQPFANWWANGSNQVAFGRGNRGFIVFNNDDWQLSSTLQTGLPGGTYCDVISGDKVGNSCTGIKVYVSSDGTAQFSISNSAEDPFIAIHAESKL
# [8] = target: butyrylcholinesterase (Homo sapiens, UniProt P06276); test: biochemical; details: Tris-HCl pH 8.0, 25 °C, 405 nm; for IC50: read-out: BChE IC50 (converted)
# Sequence of butyrylcholinesterase (P06276 29-602): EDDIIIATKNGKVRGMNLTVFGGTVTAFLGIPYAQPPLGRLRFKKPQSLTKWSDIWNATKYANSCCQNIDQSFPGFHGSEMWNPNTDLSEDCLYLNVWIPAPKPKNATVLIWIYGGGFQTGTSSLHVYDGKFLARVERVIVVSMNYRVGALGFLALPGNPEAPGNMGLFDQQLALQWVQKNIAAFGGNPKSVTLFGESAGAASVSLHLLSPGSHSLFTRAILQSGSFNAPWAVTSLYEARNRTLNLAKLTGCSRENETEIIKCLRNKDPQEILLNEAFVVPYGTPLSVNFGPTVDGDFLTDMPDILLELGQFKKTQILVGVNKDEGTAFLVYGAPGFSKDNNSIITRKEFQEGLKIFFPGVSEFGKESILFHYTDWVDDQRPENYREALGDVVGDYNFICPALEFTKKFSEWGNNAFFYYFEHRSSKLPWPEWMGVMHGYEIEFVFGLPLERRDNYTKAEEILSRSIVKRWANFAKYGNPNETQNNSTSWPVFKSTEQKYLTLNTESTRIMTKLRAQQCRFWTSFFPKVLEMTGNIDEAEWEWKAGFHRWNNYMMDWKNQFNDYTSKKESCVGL
# [9] = Copper ions reducing activity (CUPRAC); details: Trolox equivalents; 30 min dark, room temperature, 450 nm
# [10] = test system: Yersinia pseudotuberculosis ATCC911; test: microbe, parasite or virus in culture; type: cell-based; details: for MIC: Yersinia pseudotuberculosis, ATCC911, read-out: MIC Yp
# [11] = target: acetylcholinesterase (Homo sapiens, UniProt P22303); test: biochemical; details: Tris-HCl pH 8.0, 25 °C, 405 nm; for IC50: read-out: AChE IC50 (converted)
# Sequence of acetylcholinesterase (P22303 32-614, species assumed): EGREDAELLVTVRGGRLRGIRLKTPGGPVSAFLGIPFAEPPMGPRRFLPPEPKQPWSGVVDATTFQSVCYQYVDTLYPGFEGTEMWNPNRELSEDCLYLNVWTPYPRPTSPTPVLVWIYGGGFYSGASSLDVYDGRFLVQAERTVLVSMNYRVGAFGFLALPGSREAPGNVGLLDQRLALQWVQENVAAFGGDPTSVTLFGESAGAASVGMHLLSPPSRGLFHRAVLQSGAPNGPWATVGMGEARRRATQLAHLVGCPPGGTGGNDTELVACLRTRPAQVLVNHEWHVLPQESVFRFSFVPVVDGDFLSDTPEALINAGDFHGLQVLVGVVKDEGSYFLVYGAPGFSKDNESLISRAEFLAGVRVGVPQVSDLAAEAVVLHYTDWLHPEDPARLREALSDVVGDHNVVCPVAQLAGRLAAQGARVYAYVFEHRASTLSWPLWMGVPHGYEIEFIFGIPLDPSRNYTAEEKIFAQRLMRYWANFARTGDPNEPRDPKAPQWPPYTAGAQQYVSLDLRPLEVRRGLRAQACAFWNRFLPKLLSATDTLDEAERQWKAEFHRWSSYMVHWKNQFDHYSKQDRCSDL
# [12] = DPPH radical scavenging activity; details: 0.1 mM DPPH, 50 min dark, 517 nm
# [13] = test system: Streptococcus mutans RSKK07038; test: MIC, microdilution, S. mutans; type: cell-based; details: Gram (+), BHI broth, 72 h, 36 °C; for MIC: Streptococcus mutans, RSKK07038, read-out: MIC Sm
# [14] = test system: Escherichia coli ATCC 25922; test: MIC, microdilution, E. coli; type: cell-based; details: for MIC: Escherichia coli
# [15] = target: tyrosinase (Agaricus bisporus, UniProt C7FF04); test: Tyrosinase inhibition (dopachrome method); type: biochemical; details: L-DOPA substrate, pH 6.8, 25 °C, 492 nm
# Sequence of tyrosinase (C7FF04 1-392): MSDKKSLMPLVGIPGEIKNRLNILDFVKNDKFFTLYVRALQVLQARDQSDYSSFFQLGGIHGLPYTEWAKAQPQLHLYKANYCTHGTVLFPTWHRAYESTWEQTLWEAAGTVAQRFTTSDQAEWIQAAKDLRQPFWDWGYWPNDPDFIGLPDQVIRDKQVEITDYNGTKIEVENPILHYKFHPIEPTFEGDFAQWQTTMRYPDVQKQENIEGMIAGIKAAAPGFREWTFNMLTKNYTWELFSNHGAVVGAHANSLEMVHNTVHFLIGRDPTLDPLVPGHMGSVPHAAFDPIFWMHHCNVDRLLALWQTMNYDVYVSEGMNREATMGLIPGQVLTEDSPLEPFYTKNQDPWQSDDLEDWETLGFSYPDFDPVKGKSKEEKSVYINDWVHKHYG
# [16] = Ferric reducing antioxidant power (FRAP) assay; details: Trolox equivalents, compounds 2 mg/mL, 30 °C 30 min, 595 nm
# [17] = test system: Enterococcus faecalis ATCC29212; test: MIC, microdilution, E. faecalis; type: cell-based; details: Gram (+), Mueller-Hinton broth, 18-24 h, 36 °C; for MIC: Enterococcus faecalis, ATCC29212, read-out: MIC Ef
# [18] = test system: human retinal normal cell line (RPE); test: MTT cell proliferation, RPE
# [19] = test system: human cervical cancer cell line (HeLa); test: MTT cell proliferation, HeLa
# [20] = test system: Paenibacillus larvae DSM7030; test: MIC, microdilution, P. larvae; type: cell-based; details: Gram (+) nonpathogenic spore forming
# [21] = test system: Bacillus subtilis ATCC1266; test: MIC, microdilution, B. subtilis; type: cell-based; details: Gram (+) nonpathogenic spore forming
# [22] = Gram (+), Mueller-Hinton broth, 18-24 h, 36 °C
# [23] = Gram (-), Mueller-Hinton broth, 18-24 h, 36 °C
# [24] = ATCC25922, Gram (-), Mueller-Hinton broth, 18-24 h, 36 °C, read-out: MIC Ec
Molecule,α-Glucosidase IC50 [3] [mg/L],"CUPRAC, copper reducing antioxidant power [9] [μg/mL trolox/gram DW]",DPPH radical scavenging capacity (SC50) [12] [mg/mL],"FRAP, the iron reducing antioxidant power [16] [μg/mL trolox/gram DW]",MIC [1] [mg/L],IC50 [8] [µM],IC50 [11] [µM],MIC [20] [mg/L],other results
"2-Hydroxy-1-(3,5-dihydroxyphenyl)-2-(3-hydroxyphenyl)ethanone and 2-Hydroxy-1-(3-hydroxyphenyl)-2-(3,5-dihydroxyphenyl)ethanone [6a+b]",76.53,506.67 ± 17.3,9.48 ± 0.3,2237 ± 58.3,,,,,"MIC Ms [1]: 12 mg/L; MIC Ca [2]: 103 mg/L; MIC Pa [4]: 52 mg/L; MIC Sa [5, 22]: 12 mg/L; MIC Bc [6, 22]: 24 mg/L; α-Amylase IC50 [7]: 230.76 mg/L; BChE IC50 [8]: 592.92 mg/L; MIC Yp [10, 23]: 103 mg/L; AChE IC50 [11]: >1000 mg/L; MIC Sm [13]: 12 mg/L; MIC Ec [14, 23]: 103 mg/L; Tyrosinase IC50 [15]: 25.45 mg/L; FRAP, the iron reducing antioxidant power ([16]; listed as 6): 2237±58.3 μg/mL trolox/gram DW; MIC Ef [17]: 24 mg/L"
2-Hydroxy-1-(3-O- β -D-glucopyranosylphenyl)-2-(3-hydroxyphenyl)-ethanone; 2-Hydroxy-1-(3-hydroxyphenyl)-2-(3-O- β -D-glucopyranosylphenyl)ethanone [18a+b],>1000,385.80 ± 37.12,12.11 ± 0.43,2743.75 ± 25.20,,,,,"α-Amylase IC50 [7]: >1000 mg/L; GI50 RPE normal cell line ([18]; MTT, 24 h incubation): 1.90 mg/L; IC50 RPE normal cell line ([18]; MTT, 24 h incubation): 83.81 mg/L; GI50 HeLa cell line ([19]; MTT, 24 h incubation): 2.23 mg/L; IC50 HeLa cell line ([19]; MTT, 24 h incubation): 104.49 mg/L; Tyrosinase IC50 [15]: >1000 mg/L"
"O=C(c1cc(O)cc(O)c1)C(O)c1ccccc1 (stereo not shown) [Compound 3, 2-Hydroxy-1-(3,5-dihydroxyphenyl)-2-phenylethanone]",812.10,90.00 ± 6.8,8.72 ± 0.26,1111 ± 47.9,103,592,1630,,"MIC [2]: 414 mg/L; MIC [4]: 207 mg/L; MIC ([5]; ATCC25923, read-out: MIC Sa): 207 mg/L; MIC ([6]; ROMA709, read-out: MIC Bc): 207 mg/L; MIC [10]: 1660 mg/L; MIC [13]: 414 mg/L; MIC [14, 24]: 820 mg/L; MIC [17]: 820 mg/L"
"O=C(C(=O)c1cccc(O)c1)c1ccccc1 [Compound 8, 1-(3-Hydroxyphenyl)-2-phenylethane-1,2-dione]",>1000,1095.00 ± 18.1,13.56 ± 1.2,1678 ± 64.6,9 to 18,> 4420,> 4420,,"MIC Ms [1]: 11 mg/L; MIC [2]: 41 mg/L; MIC [4]: 11 mg/L; MIC ([5]; ATCC25923, Gram (+), Mueller-Hinton broth, 18-24 h, 36 °C, read-out: MIC Sa): 11 mg/L; MIC ([6]; ROMA709, Gram (+), Mueller-Hinton broth, 18-24 h, 36 °C, read-out: MIC Bc): 11 mg/L; MIC [10]: 167 mg/L; MIC [13]: 21 mg/L; MIC ([14]; ATCC25922, read-out: MIC Ec): 167 mg/L; MIC [17]: 21 mg/L"
"O=C(C(=O)c1cccc(OC2O[C@H](CO)[C@@H](O)[C@H](O)[C@H]2O)c1)c1ccccc1 (stereo partly drawn) [Compound 21, 1-(3-O-β -D-Glucopyranosylphenyl)-2-phenylethane-1,2-dione]",>1000,109.94 ± 19.42,36.94 ± 1.71,1981.25 ± 28.33,,> 2570,> 2570,12 to 27,MIC [21]: 12 to 27 mg/L
"O=C(C(=O)c1ccc(OC2O[C@H](CO)[C@@H](O)[C@H](O)[C@H]2O)cc1)c1ccccc1 (stereo partly drawn) [Compound 22, 1-(4-O-β -D-Glucopyranosylphenyl)-2-phenylethane-1,2-dione]",212.24,248.97 ± 34.06,47.54 ± 1.05,1845.42 ± 41.36,,1360,342,12 to 27,MIC [21]: 12 to 27 mg/L
"O=C(C(=O)c1cccc(OC2O[C@H](CO)[C@@H](O)[C@H](O)[C@H]2O)c1)c1ccc(O)cc1 (stereo partly drawn) [Compound 25, 1-(3-O-β -D-Glucopyranosylphenyl)-2-(4-hydroxyphenyl)ethane-1,2-dione]",>1000,147.54 ± 25.04,26.33 ± 0.39,2570.42 ± 25.01,8 to 15,331,562,8 to 15,"GI50 ([18]; Homo sapiens, 24 h, read-out: GI50 RPE normal cell line): 3.38 mg/L; IC50 ([18]; Homo sapiens, 24 h, read-out: IC50 RPE normal cell line): 102 mg/L; MIC [14, 24]: 8 to 15 mg/L; GI50 ([19]; Homo sapiens, HeLa, 24 h, read-out: GI50 HeLa cell line): 2.21 mg/L; IC50 ([19]; Homo sapiens, HeLa, 24 h, read-out: IC50 HeLa cell line): 81.5 mg/L"
